Source: ChEMBL document CHEMBL1201861, “Genomics of Drug Sensitity in Cancer screening data, Wellcome Trust Sanger Institute”
One block for each molecule: values may come before it.

Legend:
Experiment in all cases: cells
MSTO-211H = format: functional, cell-based, Homo sapiens; conditions: Homo sapiens, MSTO-211H
Description: SANGER: Inhibition of human MSTO-211H cell growth in a cell viability assay.

AM-38 = format: functional, cell-based, Homo sapiens; conditions: Homo sapiens, AM-38;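 also: growth inhibition of AM-38 cells of human origin, read out by a cell viability assay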
Description: SANGER: Inhibition of human AM-38 cell growth in a cell viability assay.

LC-2-ad = format: functional, cell-based, Homo sapiens; conditions: Homo sapiens, LC-2-ad;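 also: growth inhibition of human LC-2-ad cells, read out with a cell viability assay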
Description: SANGER: Inhibition of human LC-2-ad cell growth in a cell viability assay.

Becker = format: functional, cell-based, Homo sapiens; conditions: Homo sapiens, Becker;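 also: growth inhibition of Becker cells, read out with a cell viability assay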
Description: SANGER: Inhibition of human Becker cell growth in a cell viability assay.

U-87 MG = format: functional, cell-based, Homo sapiens, U-87MG ATCC; conditions: Homo sapiens, U-87 MG;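 also: growth inhibition of the cells measured with a viability assay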
Description: SANGER: Inhibition of human U-87-MG cell growth in a cell viability assay.

LB831-BLC = format: functional, cell-based, Homo sapiens; conditions: Homo sapiens, LB831-BLC;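 also: growth inhibition of LB831-BLC cells, read out with a cell viability assay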
Description: SANGER: Inhibition of human LB831-BLC cell growth in a cell viability assay.

SNU1 = format: functional, cell-based, Homo sapiens; conditions: Homo sapiens, SNU1;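 also: growth inhibition of human NCI-SNU-1 cells, measured with a cell viability assay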
Description: SANGER: Inhibition of human NCI-SNU-1 cell growth in a cell viability assay.

MOLT-16 = format: functional, cell-based, Homo sapiens; conditions: Homo sapiens, MOLT-16;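 also: growth inhibition of human MOLT-16 cells, read out with a cell viability assay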
Description: SANGER: Inhibition of human MOLT-16 cell growth in a cell viability assay.

HOP-62 = format: functional, cell-based, Homo sapiens; conditions: Homo sapiens, HOP-62;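 also: cell growth inhibition determined with a viability assay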
Description: SANGER: Inhibition of human HOP-62 cell growth in a cell viability assay.

RPMI-8866 = format: functional, cell-based, Homo sapiens; conditions: Homo sapiens, RPMI-8866
Description: SANGER: Inhibition of human RPMI-8866 cell growth in a cell viability assay.

KNS-81-FD = format: functional, cell-based, Homo sapiens; conditions: Homo sapiens, KNS-81-FD;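 also: growth inhibition of KNS-81-FD cells, read out with a cell viability assay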
Description: SANGER: Inhibition of human KNS-81-FD cell growth in a cell viability assay.

ES4 = format: functional, cell-based, Homo sapiens; conditions: Homo sapiens, ES4;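 also: growth inhibition of human ES4 cells, read out by a cell viability assay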
Description: SANGER: Inhibition of human ES4 cell growth in a cell viability assay.

LS-513 = format: functional, cell-based, Homo sapiens; conditions: Homo sapiens, LS-513
Description: SANGER: Inhibition of human LS-513 cell growth in a cell viability assay.

MZ1-PC = format: functional, cell-based, Homo sapiens; conditions: Homo sapiens, MZ1-PC;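 also: cell viability assay measuring growth inhibition of human MZ1-PC cells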
Description: SANGER: Inhibition of human MZ1-PC cell growth in a cell viability assay.

KALS-1 = format: functional, cell-based, Homo sapiens; conditions: Homo sapiens, KALS-1; read-out: IC50;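 also: growth inhibition of KALS-1 cells, determined with a cell viability assay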
Description: SANGER: Inhibition of human KALS-1 cell growth in a cell viability assay.

KP-N-YS = format: functional, cell-based, Homo sapiens; conditions: Homo sapiens, KP-N-YS;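 also: cell viability assay measuring inhibition of cell line growth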
Description: SANGER: Inhibition of human KP-N-YS cell growth in a cell viability assay.

ES1 = format: functional, cell-based, Homo sapiens; conditions: Homo sapiens, ES1;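 also: growth inhibition of ES1 cells, read out with a cell viability assay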
Description: SANGER: Inhibition of human ES1 cell growth in a cell viability assay.

EW-16 = format: functional, cell-based, Homo sapiens; conditions: Homo sapiens, EW-16;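 also: growth inhibition of human EW-16 cells, read out as cell viability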
Description: SANGER: Inhibition of human EW-16 cell growth in a cell viability assay.

SHP77 = format: functional, cell-based, Homo sapiens, SHP-77; conditions: Homo sapiens, SHP77;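 also: growth inhibition of human SHP-77 cells measured by a cell viability assay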
Description: SANGER: Inhibition of human SHP-77 cell growth in a cell viability assay.

C8166 = format: functional, cell-based, Homo sapiens; conditions: Homo sapiens, C8166;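 also: growth inhibition of human C8166 cells measured by a cell viability assay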
Description: SANGER: Inhibition of human C8166 cell growth in a cell viability assay.

LAN-6 = format: functional, cell-based, Homo sapiens; conditions: Homo sapiens, LAN-6;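 also: growth inhibition of LAN-6 cells, determined with a cell viability assay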
Description: SANGER: Inhibition of human LAN-6 cell growth in a cell viability assay.

BB30-HNC = format: functional, cell-based, Homo sapiens; conditions: Homo sapiens, BB30-HNC;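 also: growth inhibition of the cultured cell line, read out by a cell viability assay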
Description: SANGER: Inhibition of human BB30-HNC cell growth in a cell viability assay.

IST-MEL1 = format: functional, cell-based, Homo sapiens; conditions: Homo sapiens, IST-MEL1;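 also: growth inhibition of the cell line, read out with a cell viability assay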
Description: SANGER: Inhibition of human IST-MEL1 cell growth in a cell viability assay.

LU-134-A = format: functional, cell-based, Homo sapiens; conditions: Homo sapiens, LU-134-A
Description: SANGER: Inhibition of human LU-134-A cell growth in a cell viability assay.

LAMA-84 = format: functional, cell-based, Homo sapiens; conditions: Homo sapiens, LAMA-84;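 also: growth inhibition of LAMA-84 cells, read out with a cell viability assay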
Description: SANGER: Inhibition of human LAMA-84 cell growth in a cell viability assay.

SCH = format: functional, cell-based, Homo sapiens; conditions: Homo sapiens, SCH;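 also: growth inhibition of human SCH cells, read out in a cell viability assay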
Description: SANGER: Inhibition of human SCH cell growth in a cell viability assay.

KE-37 = format: functional, cell-based, Homo sapiens; conditions: Homo sapiens, KE-37;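 also: growth inhibition of KE-37 cells, read out with a cell viability assay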
Description: SANGER: Inhibition of human KE-37 cell growth in a cell viability assay.

TE-5 = format: functional, cell-based, Homo sapiens; conditions: Homo sapiens, TE-5;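 also: inhibition of cell growth, read out by a cell viability assay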
Description: SANGER: Inhibition of human TE-5 cell growth in a cell viability assay.

ML-2 = format: functional, cell-based, Homo sapiens; conditions: Homo sapiens, ML-2;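 also: growth inhibition of ML-2 cells, measured with a cell viability readout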
Description: SANGER: Inhibition of human ML-2 cell growth in a cell viability assay.

SK-N-FI = format: functional, cell-based, Homo sapiens; conditions: Homo sapiens, SK-N-FI;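 also: cell viability assay measuring growth inhibition of human SK-N-FI cells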
Description: SANGER: Inhibition of human SK-N-FI cell growth in a cell viability assay.

RKO = format: functional, cell-based, Homo sapiens; conditions: Homo sapiens, RKO;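 also: growth inhibition of human RKO cells, read out with a cell viability assay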
Description: SANGER: Inhibition of human RKO cell growth in a cell viability assay.

ACN = format: functional, cell-based, Homo sapiens; conditions: Homo sapiens, ACN;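 also: growth inhibition of the human ACN cell line, read out via cell viability testing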
Description: SANGER: Inhibition of human ACN cell growth in a cell viability assay.

NOMO-1 = format: functional, cell-based, Homo sapiens; conditions: Homo sapiens, NOMO-1;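 also: growth inhibition of human NOMO-1 cells measured by a cell viability assay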
Description: SANGER: Inhibition of human NOMO-1 cell growth in a cell viability assay.

CAS-1 = format: functional, cell-based, Homo sapiens; conditions: Homo sapiens, CAS-1;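 also: growth inhibition of CAS-1 cells, measured with a cell viability assay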
Description: SANGER: Inhibition of human CAS-1 cell growth in a cell viability assay.

CCRF-CEM = format: functional, cell-based, Homo sapiens; conditions: Homo sapiens, CCRF-CEM;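 also: inhibition of CCRF-CEM cell growth, measured by a cell viability assay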
Description: SANGER: Inhibition of human CCRF-CEM cell growth in a cell viability assay.

KARPAS-299 = format: functional, cell-based, Homo sapiens; conditions: Homo sapiens, KARPAS-299
Description: SANGER: Inhibition of human KARPAS-299 cell growth in a cell viability assay.

NCI-H747 = format: functional, cell-based, Homo sapiens; conditions: Homo sapiens, NCI-H747;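 also: growth inhibition of human NCI-H747 cells, read out by a cell viability assay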
Description: SANGER: Inhibition of human NCI-H747 cell growth in a cell viability assay.

NCI-H1395 = format: functional, cell-based, Homo sapiens; conditions: Homo sapiens, NCI-H1395;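 also: cell viability assay read-out quantifying reduced proliferation of human NCI-H1395 cells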
Description: SANGER: Inhibition of human NCI-H1395 cell growth in a cell viability assay.

A101D = format: functional, cell-based, Homo sapiens; conditions: Homo sapiens, A101D;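 also: growth inhibition of the cell line, measured with a viability assay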
Description: SANGER: Inhibition of human A101D cell growth in a cell viability assay.

NCI-H209 = format: functional, cell-based, Homo sapiens; conditions: Homo sapiens, NCI-H209;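 also: growth inhibition of human NCI-H209 cells, measured by a cell viability assay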
Description: SANGER: Inhibition of human NCI-H209 cell growth in a cell viability assay.

RH-1 = format: functional, cell-based, Homo sapiens; conditions: Homo sapiens, RH-1;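 also: growth inhibition of human RH-1 cells, read out with a cell viability assay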
Description: SANGER: Inhibition of human RH-1 cell growth in a cell viability assay.

ONS-76 = format: functional, cell-based, Homo sapiens; conditions: Homo sapiens, ONS-76;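 also: growth inhibition of human ONS-76 cells, read out with a cell viability assay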
Description: SANGER: Inhibition of human ONS-76 cell growth in a cell viability assay.

LB771-HNC = format: functional, cell-based; conditions: Homo sapiens;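 also: growth inhibition of LB771-HNC human cells, read out with a cell viability assay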
Description: SANGER: Inhibition of human LB771-HNC cell growth in a cell viability assay.

EW-13 = format: functional, cell-based, Homo sapiens; conditions: Homo sapiens, EW-13; read-out: IC50;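 also: growth inhibition of EW-13 cells, read out with a cell viability assay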
Description: SANGER: Inhibition of human EW-13 cell growth in a cell viability assay.

JVM-3 = format: functional, cell-based, Homo sapiens; conditions: Homo sapiens, JVM-3;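 also: growth inhibition of human JVM-3 cells, read out with a cell viability assay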
Description: SANGER: Inhibition of human JVM-3 cell growth in a cell viability assay.

LNCaP-Clone-FGC = format: functional, cell-based, Homo sapiens; conditions: Homo sapiens, LNCaP-Clone-FGC
Description: SANGER: Inhibition of human LNCaP-Clone-FGC cell growth in a cell viability assay.

Compound: NC(=O)Nc1cc(-c2cccc(F)c2)sc1C(=O)N[C@H]1CCCNC1 [AZD-7762]
IC50 (MSTO-211H): 299 nM | IC50 (AM-38): > 2000 nM | IC50 (LC-2-ad): 565 nM | IC50 (Becker): 658 nM | IC50 (U-87 MG): 1210 nM | IC50 (LB831-BLC): > 2000 nM | IC50 (SNU1): 271 nM | IC50 (MOLT-16): 88.1 nM | IC50 (HOP-62): 726 nM | IC50 (RPMI-8866): 139 nM | IC50 (KNS-81-FD): > 2000 nM | IC50 (ES4): 32.5 nM | IC50 (LS-513): 749 nM | IC50 (MZ1-PC): > 2000 nM | IC50 (KALS-1): 326 nM | IC50 (KP-N-YS): 584 nM | IC50 (ES1): 71.5 nM | IC50 (EW-16): 538 nM | IC50 (SHP77): > 2000 nM | IC50 (C8166): 1910 nM | IC50 (LAN-6): 1080 nM | IC50 (BB30-HNC): 315 nM | IC50 (IST-MEL1): 226 nM | IC50 (LU-134-A): 657 nM | IC50 (LAMA-84): 165 nM | IC50 (SCH): 1330 nM | IC50 (KE-37): 31.4 nM | IC50 (TE-5): 1420 nM | IC50 (ML-2): 125 nM | IC50 (SK-N-FI): 1490 nM | IC50 (RKO): 520 nM | IC50 (ACN): 172 nM | IC50 (NOMO-1): 61.2 nM | IC50 (CAS-1): 1210 nM | IC50 (CCRF-CEM): 292 nM | IC50 (KARPAS-299): > 2000 nM | IC50 (NCI-H747): > 2000 nM | IC50 (NCI-H1395): 198 nM | IC50 (A101D): 1700 nM | IC50 (NCI-H209): 324 nM | IC50 (RH-1): 227 nM | IC50 (ONS-76): 62 nM | IC50 (LB771-HNC): 559 nM | IC50 (EW-13): > 2000 nM | IC50 (JVM-3): 230 nM | IC50 (LNCaP-Clone-FGC): 1440 nM

Compound: CN(NC(=O)CC(=O)NN(C)C(=S)c1ccccc1)C(=S)c1ccccc1 [ELESCLOMOL]
IC50 (MSTO-211H): > 200 nM | IC50 (AM-38): 169 nM | IC50 (LC-2-ad): 27.8 nM | IC50 (Becker): 22.3 nM | IC50 (U-87 MG): > 200 nM | IC50 (LB831-BLC): 27.7 nM | IC50 (SNU1): 4.86 nM | IC50 (MOLT-16): 4.53 nM | IC50 (HOP-62): 122 nM | IC50 (RPMI-8866): 30 nM | IC50 (KNS-81-FD): 17.5 nM | IC50 (ES4): 4.39 nM | IC50 (LS-513): 82 nM | IC50 (MZ1-PC): 144 nM | IC50 (KALS-1): 96.3 nM | IC50 (KP-N-YS): 79.9 nM | IC50 (ES1): 0.749 nM | IC50 (EW-16): 1.61 nM | IC50 (SHP77): > 200 nM | IC50 (C8166): > 200 nM | IC50 (LAN-6): 54.6 nM | IC50 (BB30-HNC): 35.3 nM | IC50 (IST-MEL1): 11.3 nM | IC50 (LU-134-A): > 200 nM | IC50 (LAMA-84): 52.7 nM | IC50 (SCH): > 200 nM | IC50 (KE-37): > 200 nM | IC50 (TE-5): 15 nM | IC50 (ML-2): > 200 nM | IC50 (SK-N-FI): 81.5 nM | IC50 (RKO): 21 nM | IC50 (ACN): 11.7 nM | IC50 (NOMO-1): > 200 nM | IC50 (CAS-1): 116 nM | IC50 (CCRF-CEM): > 200 nM | IC50 (KARPAS-299): 37.4 nM | IC50 (NCI-H747): 57.4 nM | IC50 (NCI-H1395): 13.6 nM | IC50 (A101D): 11.4 nM | IC50 (NCI-H209): > 200 nM | IC50 (RH-1): 58.2 nM | IC50 (ONS-76): 10.3 nM | IC50 (LB771-HNC): > 200 nM | IC50 (EW-13): 19.8 nM | IC50 (JVM-3): > 200 nM | IC50 (LNCaP-Clone-FGC): 7.73 nM

IC50 (HOP-62): 181 nM | IC50 (BB30-HNC): 324 nM | IC50 (CAS-1): 182 nM | IC50 (KARPAS-299): > 512 nM | IC50 (NCI-H747): > 512 nM
Compound: CO[C@@H]1[C@H](N(C)C(=O)c2ccccc2)C[C@H]2O[C@]1(C)n1c3ccccc3c3c4c(c5c6ccccc6n2c5c31)C(=O)NC4 [MIDOSTAURIN]
